Test system: 873145-292-R-J1-PDC complex spheroid viability
Experiment: Anticancer human tumor 873145-292-R-J1-PDC patient-derived renal clear cell carcinoma cell line growth inhibition [POLQ]
Settings: for IC50: curve of first compound; for viability, T/C: stronger effect = lower value
Outline: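 PDC + HUVEC + MSC complex spheroids; POLQ inhibitors ± partner drugs; top conc. at/near clinical Cmax, else 10 microM (SN-38 1 microM), half-log dilutions; 37 degrees C, 5% CO2.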

[1] = second compound 0.0316 µM, first compound 0.0316 µM
[2] = second compound 0.0316 µM, first compound 0.1 µM
[3] = second compound 0.0316 µM, first compound 0.316 µM
[4] = second compound 0.0316 µM, first compound 1 µM
[5] = second compound 0.1 µM, first compound 0.0316 µM
[6] = second compound 0.1 µM, first compound 0.1 µM
[7] = second compound 0.1 µM, first compound 0.316 µM
[8] = second compound 0.1 µM, first compound 1 µM
[9] = second compound 0.316 µM, first compound 0.0316 µM
[10] = second compound 0.316 µM, first compound 0.1 µM
[11] = second compound 0.316 µM, first compound 0.316 µM
[12] = second compound 0.316 µM, first compound 1 µM
[13] = second compound 1 µM, first compound 0.0316 µM
[14] = second compound 1 µM, first compound 0.1 µM
[15] = second compound 1 µM, first compound 0.316 µM
[16] = second compound 1 µM, first compound 1 µM
[17] = second compound 3.16 µM, first compound 0.0316 µM
[18] = second compound 3.16 µM, first compound 0.1 µM
[19] = second compound 3.16 µM, first compound 0.316 µM
[20] = second compound 3.16 µM, first compound 1 µM
[21] = second compound 10 µM, first compound 0.0316 µM
[22] = second compound 10 µM, first compound 0.1 µM
[23] = second compound 10 µM, first compound 0.316 µM
[24] = second compound 10 µM, first compound 1 µM
[25] = second compound 0.0316 µM, first compound 3.16 µM
[26] = second compound 0.0316 µM, first compound 10 µM
[27] = second compound 0.1 µM, first compound 3.16 µM
[28] = second compound 0.1 µM, first compound 10 µM
[29] = second compound 0.316 µM, first compound 3.16 µM
[30] = second compound 0.316 µM, first compound 10 µM
[31] = second compound 1 µM, first compound 3.16 µM
[32] = second compound 1 µM, first compound 10 µM
[33] = second compound 3.16 µM, first compound 3.16 µM
[34] = second compound 3.16 µM, first compound 10 µM
[35] = second compound 10 µM, first compound 3.16 µM
[36] = second compound 10 µM, first compound 10 µM
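Further: spheroids exposed to compounds for 7 days before viability readout.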
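Wherever viability, T/C is given: luminescence signal used as surrogate for viable cell content; 100% = DMSO vehicle control viability.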

SMILES: C=CCn1c(=O)c2cnc(Nc3ccc(N4CCN(C)CC4)cc3)nc2n1-c1cccc(C(C)(C)O)n1 + Nc1ccc(C#CCN(C(=O)Cc2ncc(C(F)(F)F)cc2C(F)(F)F)c2ccc(F)cc2)nn1
- IC50 (second compound 0.0316 µM): > 1 µM
- IC50 (second compound 0.1 µM): > 1 µM
- IC50 (second compound 0.316 µM): > 1 µM
- IC50 (second compound 1 µM): > 1 µM
- IC50 (second compound 3.16 µM): > 1 µM
- IC50 (second compound 10 µM): > 1 µM
- viability, T/C (second compound 0.0316 µM, first compound 0.00316 µM): 93.8%
- viability, T/C (second compound 0.0316 µM, first compound 0.01 µM): 110%
- viability, T/C [1]: 92.7%
- viability, T/C [2]: 86.6%
- viability, T/C [3]: 78.5%
- viability, T/C [4]: 77.3%
- viability, T/C (second compound 0.1 µM, first compound 0.00316 µM): 106%
- viability, T/C (second compound 0.1 µM, first compound 0.01 µM): 105%
- viability, T/C [5]: 86.4%
- viability, T/C [6]: 100%
- viability, T/C [7]: 89.2%
- viability, T/C [8]: 74.1%
- viability, T/C (second compound 0.316 µM, first compound 0.00316 µM): 91.8%
- viability, T/C (second compound 0.316 µM, first compound 0.01 µM): 99.1%
- viability, T/C [9]: 79.5%
- viability, T/C [10]: 86.4%
- viability, T/C [11]: 87.8%
- viability, T/C [12]: 72.9%
- viability, T/C (second compound 1 µM, first compound 0.00316 µM): 93.5%
- viability, T/C (second compound 1 µM, first compound 0.01 µM): 95.3%
- viability, T/C [13]: 94.1%
- viability, T/C [14]: 88.5%
- viability, T/C [15]: 90.6%
- viability, T/C [16]: 69.3%
- viability, T/C (second compound 3.16 µM, first compound 0.00316 µM): 105%
- viability, T/C (second compound 3.16 µM, first compound 0.01 µM): 103%
- viability, T/C [17]: 88.4%
- viability, T/C [18]: 90.2%
- viability, T/C [19]: 81.4%
- viability, T/C [20]: 79.8%
- viability, T/C (second compound 10 µM, first compound 0.00316 µM): 110%
- viability, T/C (second compound 10 µM, first compound 0.01 µM): 106%
- viability, T/C [21]: 108%
- viability, T/C [22]: 101%
- viability, T/C [23]: 77.9%
- viability, T/C [24]: 77.8%

SMILES: CC1COCCN1c1cc(C2(S(C)(=N)=O)CC2)nc(-c2ccnc3[nH]ccc23)n1 (stereo unspecified) + Nc1ccc(C#CCN(C(=O)Cc2ncc(C(F)(F)F)cc2C(F)(F)F)c2ccc(F)cc2)nn1
- IC50 (second compound 0.0316 µM): > 10 µM
- IC50 (second compound 0.1 µM): > 10 µM
- IC50 (second compound 0.316 µM): > 10 µM
- IC50 (second compound 1 µM): > 10 µM
- IC50 (second compound 3.16 µM): > 10 µM
- IC50 (second compound 10 µM): > 10 µM
- viability, T/C [1]: 103%
- viability, T/C [2]: 99.2%
- viability, T/C [3]: 102%
- viability, T/C [4]: 80.5%
- viability, T/C [25]: 73.9%
- viability, T/C [26]: 71%
- viability, T/C [5]: 107%
- viability, T/C [6]: 98.4%
- viability, T/C [7]: 82%
- viability, T/C [8]: 83.3%
- viability, T/C [27]: 88.9%
- viability, T/C [28]: 67.8%
- viability, T/C [9]: 102%
- viability, T/C [10]: 92.8%
- viability, T/C [11]: 84.7%
- viability, T/C [12]: 92.3%
- viability, T/C [29]: 78.2%
- viability, T/C [30]: 69.6%
- viability, T/C [13]: 90.7%
- viability, T/C [14]: 90%
- viability, T/C [15]: 90.8%
- viability, T/C [16]: 88.5%
- viability, T/C [31]: 80.2%
- viability, T/C [32]: 64.4%
- viability, T/C [17]: 92.2%
- viability, T/C [18]: 97.1%
- viability, T/C [19]: 101%
- viability, T/C [20]: 82.8%
- viability, T/C [33]: 82%
- viability, T/C [34]: 73.2%
- viability, T/C [21]: 105%
- viability, T/C [22]: 106%
- viability, T/C [23]: 103%
- viability, T/C [24]: 110%
- viability, T/C [35]: 85.5%
- viability, T/C [36]: 81.3%

SMILES: CCCS(=O)(=O)Nc1ccc(F)c(C(=O)c2c[nH]c3ncc(-c4ccc(Cl)cc4)cc23)c1F + Nc1ccc(C#CCN(C(=O)Cc2ncc(C(F)(F)F)cc2C(F)(F)F)c2ccc(F)cc2)nn1
- IC50 (second compound 0.0316 µM): > 10 µM
- IC50 (second compound 0.1 µM): > 10 µM
- IC50 (second compound 0.316 µM): > 10 µM
- IC50 (second compound 1 µM): > 10 µM
- IC50 (second compound 3.16 µM): > 10 µM
- IC50 (second compound 10 µM): > 10 µM
- viability, T/C [1]: 106%
- viability, T/C [2]: 106%
- viability, T/C [3]: 115%
- viability, T/C [4]: 97%
- viability, T/C [25]: 103%
- viability, T/C [26]: 71.2%
- viability, T/C [5]: 103%
- viability, T/C [6]: 110%
- viability, T/C [7]: 91.9%
- viability, T/C [8]: 98%
- viability, T/C [27]: 105%
- viability, T/C [28]: 63.3%
- viability, T/C [9]: 109%
- viability, T/C [10]: 107%
- viability, T/C [11]: 93.3%
- viability, T/C [12]: 112%
- viability, T/C [29]: 99.2%
- viability, T/C [30]: 75.6%
- viability, T/C [13]: 98.7%
- viability, T/C [14]: 98.9%
- viability, T/C [15]: 102%
- viability, T/C [16]: 102%
- viability, T/C [31]: 91.1%
- viability, T/C [32]: 63%
- viability, T/C [17]: 106%
- viability, T/C [18]: 113%
- viability, T/C [19]: 108%
- viability, T/C [20]: 108%
- viability, T/C [33]: 101%
- viability, T/C [34]: 75.4%
- viability, T/C [21]: 121%
- viability, T/C [22]: 121%
- viability, T/C [23]: 111%
- viability, T/C [24]: 107%
- viability, T/C [35]: 110%
- viability, T/C [36]: 78.5%

Source: PubChem BioAssay AID1963834 (Molecular Pharmacology Branch, DTP, NCI, 2024)
